Results on six molecules are retold here after US12263248B2, “Compounds and compositions for intracellular delivery of therapeutic agents” (ModernaTX, Inc., priority 2018, dated 2025).

Common to all, as to format: in vivo
The nature of data set [1]: Clinical chemistry and hematology in rat, 2 mpk i.v., 48 h. As to conditions: intravenous, 48 h post dose. Here is the method: Sample formulations of nanoparticle compositions including different lipids were administered intravenously to rat at a dose of 2 mpk. The expression of various clinical markers was evaluated at 48 h post dose and compared to that induced by administration of MC3 formulations or phosphate buffered saline (PBS).

A further data set concerns hEPO mRNA. The data set can be described thus: hEPO expression and cytokine induction after intravenous administration to mice. Here is the method:
The expression of hEPO and cytokine induction in mice intravenously administered a nanoparticle composition at a dose of 0.5 mpk were measured at 3, 6, and 24 hours. […] The expression of hEPO in mice intramuscularly administered a nanoparticle composition from Table 1B at a dose of 0.01 mpk were measured at 3, 6, and 24 hours.
Blood collection and analysis for hEPO. Blood was collected from mice or rats via the tail vein and hEPO concentrations were determined using a hEPO ELISA assay.

Data set [2] can be described thus: ALT and AST after intravenous administration to rat (Table 19A). Here is the method: Table 19A summarizes the hEPO expression, IP-10 induction, liver and spleen levels, and alanine aminotransferase (ALT) and aspartate aminotransferase (AST) measured upon intravenous administration of formulations including Compounds 48, 49, and 50 to rat at 0.2 and 2 mpk and hEPO mRNA. hEPO concentrations were measured 6 hours after administration, while cytokine induction and liver and spleen levels were measured 48 hours after administration. hEPO and IP-10 concentrations are presented in pg/ml, while liver levels are provided in ng/g. ALT and AST levels are presented in international units.

The nature of data set [3]: Pharmacokinetics of lipids in mice. Further details: AUC / AUCall Mean: concentration or dose not given beside the values. The settings on record: mouse; for AUC: read-out: AUCall Mean; for Tmax: read-out: Tmax. The protocol: FIGS. 45A and 45B are a pair of graphs illustrating pharmacokinetics of lipids of the disclosure in mice. Mice were administered compositions comprising Compound 50 (FIG. 45A) or Compound 301 (FIG. 45B), in nanoparticle compositions containing DSPC and PEG 1.

[4] abbreviates: mice, intravenous, 0.5 mpk, 6 h.

Broadly, the Cmax is the maximum level reached in the sampled fluid or tissue. Broadly, the Tmax is the time at which the peak concentration occurs.

Each structure is given as a SMILES string. Where two headings read alike, the source gives them in different places.

For `CCCCCCCCCN(CCO)CCCCCCCC(=O)OC(CCCCCCCC)CCCCCCCC` [Compound 3, Heptadecan-9-yl 8-((2-hydroxyethyl)(nonyl)amino)octanoate], in data set [1], the “Concentration Alanine aminotransferase” value is 53.5, the “Concentration Aspartate aminotransferase” value is 87.5, the “Concentration Lymphocytes” value turned out to be 12051 and the “Concentration Monocytes” value was found to be 2103. Also, in data set [1], the “Concentration Neutrophils” value is 3388.5.
On to `CCCCC/C=C\C/C=C\CCCCCCCCN(CCO)CCCCCCCC(=O)OC(CCCCCCCC)CCCCCCCC` [Compound 6, Heptadecan-9-yl 8-((2-hydroxyethyl)((9Z,12Z)-octadeca-9,12-dien-1-yl)amino)octanoate], for which the “hEPO expression and average total flux compared with MC3” value in the data set with hEPO mRNA (Table 12 comparison, in words) is “outperform MC3”. Besides, in the data set with hEPO mRNA (mice, i.v., 0.5 mpk, 3, 6 and 24 hours), the “hEPO concentrations compared with MC3 formulations” value was “higher hEPO concentrations than MC3 formulations”. In addition, in the data set with hEPO mRNA (mice, intravenous, 0.5 mpk, 3 h), the “hEPO expression 3 h” value came to 2.31e+06 pg/mL. Besides, in the data set on hEPO mRNA (setting [4]), the “Average hEPO concentration (pg/ml, 6 h)” value stood at 3.17e+06 pg/mL; the “Cytokine expression IL-6 (6 h)” value came out at 10.15 pg/mL; the “Cytokine expression IP-10 (6 h)” value was determined as 116.66 pg/mL; the “hEPO expression 6 h” value amounted to 3.17e+06 pg/mL. For the same molecule, the “Fold increase in hEPO concentration relative to MC3” value in the data set on hEPO mRNA (mice, intravenous, 0.5 mpk, 6 h, Table 12) is on record as 1.73. Moreover, in the data set on hEPO mRNA (mice, intravenous, 0.5 mpk, 24 h), the “hEPO expression 24 h” value is 1.11e+06 pg/mL.
For the molecule `CCCCCCCCC(CCC)OC(=O)CCCCCCCN(CCO)CCCCCCCC(=O)OC(CCCCCCCC)CCCCCCCC` (stereo not drawn) [Compound 50, dodecan-4-yl 8-((8-(heptadecan-9-yloxy)-8-oxooctyl)(2-hydroxyethyl)amino)octanoate], in data set [2] (0.2 mpk), the ALT stood at 59.2 international units and the AST is on record as 143.2 international units. Besides, in data set [2] (2 mpk), the ALT is 78.8 international units and the AST came to 158.4 international units.
On to `CCCCCCCCCOC(=O)CCCCCCCN(CCO)CCCCCCCOC(=O)C(CCCCCCCC)CCCCCCCC` [Compound 30, 7-((2-Hydroxyethyl)(8-(nonyloxy)-8-oxooctyl)amino)heptyl 2-octyldecanoate], for which, in data set [1], the “Concentration Alanine aminotransferase” value is listed as 56, the “Concentration Aspartate aminotransferase” value stood at 95, the “Concentration Lymphocytes” value was determined as 10408.5 and the “Concentration Monocytes” value is reported as 877. Further, in data set [1], the “Concentration Neutrophils” value was determined as 3195.
For the molecule `CCCCCCCCCCCOC(=O)CCCCCN(CCO)CCCCCCCC(=O)OC(CCCCCCCC)CCCCCCCC` [Compound 25, Heptadecan-9-yl 8-((2-hydroxyethyl)(6-oxo-6-(undecyloxy)hexyl)amino)octanoate], in data set [3] (Liver), the Cmax stood at 17900 ng/mL, the AUC came out at 89200 ng·h/mL and the Tmax was 1 h. Moreover, the HL in data set [3] (Liver, * = 2 terminal datapoints estimation) is 6.9 h. Moreover, in data set [3] (Plasma), the peak level (Cmax) was 37500 ng/mL, the HL is 2.3 h, the AUC came to 35400 ng·h/mL and the Tmax was 0.5 h. Further, in data set [3] (Spleen), the peak level (Cmax) was 20400 ng/mL, the AUC was 259000 ng·h/mL and the Tmax was 4 h. Besides, the HL in data set [3] (Spleen, * = 2 terminal datapoints estimation) is 15.2 h. In addition, in data set [1], the “Concentration Alanine aminotransferase” value came out at 52, the “Concentration Aspartate aminotransferase” value turned out to be 124.5, the “Concentration Lymphocytes” value worked out at 15924 and the “Concentration Monocytes” value came to 2122. Also, the “Concentration Neutrophils” value in data set [1] was 1998.
In the case of `CCCCCC/C=C\COC(=O)CCCCCCCN(CCO)CCCCCCCC(=O)OC(CCCCCCCC)CCCCCCCC` [Compound 24, Heptadecan-9-yl (Z)-8_((2-hydroxyethyl) (8-(non-2-en-1-yloxy)-8-oxooctyl)amino)octanoate], in data set [1], the “Concentration Alanine aminotransferase” value is listed as 51.5, the “Concentration Aspartate aminotransferase” value is recorded as 90, the “Concentration Lymphocytes” value came to 14100 and the “Concentration Monocytes” value is 1834. Also, the “Concentration Neutrophils” value in data set [1] worked out at 1790.5.
